According to patent US7951789B2 (priority 2006, dated 2011):
Where two headings read alike, the source gives them in different places.

Assays:
[1] = test system: HCV Conl subgenomic replicon (GS4.1 cells); test: HCV replicon assay (NS4A ELISA, HCV ELISA 2); assay type: cell-based; conditions: Hepatitis C virus; GS4.1 cells, 72 hours, NS4A ELISA; read-out: HCV ELISA 2 EC50
Experimental: (§1) Huh-7 cells containing HCV Conl subgenomic replicon (GS4.1 cells), (C. Seeger; Fox Chase University, Philadelphia, Pa., USA), are grown in Dulbecco's Modified Eagle Medium (DMEM) supplemented with 10% fetal bovine serum (FBS), 2 mM L-glutamine, 110 mg/L sodium pyruvate, 1×non-essential amino acids, 100 U/mL penicillin-streptomycin and 0.5 mg/mL G418 (Invitrogen). For dose-response testing, the cells are seeded in 96-well plates at 7.5×10^3 cells/well in a volume of 50 μL and incubated at 37° C./5% CO2. Three hours after plating, 50 μL of ten 2-fold serial dilutions of compounds (highest concentration, 75 μM) are added and cell cultures were incubated at 37° C./5% CO2 in the presence of 0.5% DMSO. Alternatively, compounds are tested at a single concentration of 15 μM. In all cases, Huh-7 cells lacking the HCV replicon served as negative control. The cells are incubated in the presence of compounds for 72 hours after which they were monitored for expression of the NS4A protein by enzyme-linked immunosorbent assay (ELISA). For this, the plates were then fixed for 1 min with 1:1 acetone:methanol, washed twice with phosphate-buffered saline (PBS), 0.1% Tween 20, blocked for 1 hour at room temperature with TNE buffer containing 10% FBS and then incubated for 2 h at 37° C. with the anti-NS4A mouse monoclonal antibody A-236 (ViroGen) diluted in the same buffer. After washing three times with PBS, 0.1% Tween 20, the cells are incubated 1 hour at 37° C. with anti-mouse immunoglobulin G-peroxidase conjugate in TNE, 10% FBS. After washing as described above, the reaction is developed with O-phenylenediamine (Zymed). The reaction is stopped after 30 minutes with […] and the absorbance is read at 492 nm using a Sunrise Tecan spectrophotometer. EC50 values are determined from the % inhibition versus concentration data using a sigmoidal non-linear regression analysis based on four parameters with Tecan Magellan software. […] For cytotoxicity evaluation, GS4.1 cells are treated with compounds as described above and cellular viability was monitored using a Cell Titer 96 AQueous One Solution Cell Proliferation Assay (Promega). CC50 values are determined from the % cytotoxicity versus concentration data with Tecan Magellan software as described above.

[2] = Cytotoxicity evaluation in GS4.1 cells (Cell Titer 96 AQueous One Solution); assay type: cell-based; conditions: human, 72 hours
Experimental: as §1

[3] = Pharmacokinetic (PK) studies, oral, rat; assay type: in vivo; conditions: orally administered
Experimental: (§2) Methods: For pharmacokinetic (PK) and toxicology studies, B102 were orally administered to rats or monkeys at doses from 20 to 300 mg/kg/day up to 14 days. Hepatic nucleoside TP levels were determined by LC-MS/MS. Compounds (10 mg/kg/day) were administered once daily by oral gavage for 4 days in chimpanzees chronically infected with HCV genotype 1. HCV viral loads were monitored before, during and after treatment by quantitative RT-PCR.

[4] = Pharmacokinetic (PK) studies, oral, monkey; assay type: in vivo; conditions: orally administered
Experimental: as §2

HCV genotype 1 = test: Antiviral activity in chimpanzees chronically infected with HCV genotype 1; assay type: in vivo; conditions: 4 days
Experimental: as §2

[5] = test system: endogenous HBV polymerase activity; test: HBV drug susceptibility assay (EPA read-out); assay type: cell-based; conditions: for SI: CC50/EC50, HBV Cell Assay (EPA Read-out); for EC50: HBV Cell Assay (EPA Read-out), collagen plates, read-out: Antiviral Activity (EC50 in μM)
Experimental: • a) Collagen-I coated cell culture plates were seeded with cells at a density of 0.25-0.5×10^6 cells per well in 2 ml of growth/selection media. • b) Drug stock solutions were made up freshly in 100% DMSO as 200× stocks. Seven 4-fold dilutions of test compound were prepared ranging from 2.5 μM to 0.0006 μM (final). Master drug dilutions were divided into 4 aliquots, and then stored at −20° C. until used. • c) One day after cells were seeded, drug treatments were initiated by adding 10 μl of drug dilution along with 2 ml of fresh growth/selection media. […] The no-drug control wells received 10 μl of DMSO in fresh media. • d) Cells were treated every-other-day with 2 ml of fresh drug combinations/medium for a total of 8 days. Cell lysates were then collected on day 10 as described below and endogenous polymerase assay were performed. Preparation of Nucleocapsid-Containing Lysates for Epa Analysis • a) Two days after the final drug treatment, cells were harvested. • b) Media was carefully aspirated and the cell monolayers were rinsed once with 1 ml of PBS. • c) 1 ml of lysis buffer (50 mM Tris-HCl pH 7.5/150 mM NaCl/5 mM MgCl2/0.2% NP-40) was added to each well. The detergent is required to strip the outer envelope from virions and to allow capture of the inner nucleocapsids. Plates were kept on ice for >30 min. • d) Lysed cells were transferred to 1.5 ml-microfuge tubes. • e) Lysates were clarified by spinning at room temperature for 5 min at 14,000 rpm. • f) Clarified lysates were transferred to fresh tubes and immediately frozen on dry-ice, then stored at −80° C. until endogenous polymerase assays can be performed as described below. Endogenous Polymerase Assay (EPA) of Cell Lysates • a) EPAs were performed essentially as described in Seifer, et al (1998). J. Virol. 72: 2765-2776. […] The detergent is required to enhance permeability of the nucleocapsids. • d) Following digestion with 1 mg/ml of Proteinase K for 1 hour at 37° C., endogenously ^33P-labeled HBV DNA was liberated via phenol/chloroform extraction. • e) The nucleic acids were then precipitated with one volume of 5 M NH4-acetate and 2.5 volumes 100% EtOH, and separated on a 1% native agarose gel in Tris-borate buffer. • f) Gels were blotted onto positively charged nylon membrane overnight at room temperature via capillary transfer in 0.4 N NaOH. • g) Dried membranes were exposed to a phosphoimager screen (GE Healthcare) overnight at room temperature, then scanned (Storm 860, GE Healthcare) and quantitated with ImageQuant software (GE Healthcare). • h) Dose-response curves were generated using XLfit 4.1 software. The mean effective drug concentrations that inhibit endogenous HBV polymerase activity by 50% were calculated from several independent experiments. Cytotoxicity Determination

[6] = In vitro cytotoxicity assay in HepG2 cells (MTS); assay type: cell-based; conditions: human, collagen plates
Experimental: (§3) A standard in vitro cytotoxicity assay was performed in HepG2 cells. Cells were exposed to drug for 9 days. Cell viability was determined via MTS staining using a CellTiter 96 Aqueous One Solution cell proliferation assay according to the manufacturer's instructions. • a) HepG2 cells were seeded in 96-well tissue culture plates in 100 μl fresh growth media at 7×10^3 cells per well. • b) Drug stock solutions were made up in 100% DMSO as 400× stock solutions and stored at −20° C. until used. • c) Four hours after cells were plated the drug dilutions were prepared and then added to the cells. Cells received up to 100 μM of drug in a total of 200 μl of fresh growth media containing 0.25% DMSO. Control wells received growth media with 0.25% DMSO growth media. Plates were incubated at 37° C., 5% CO2. • d) Cells were treated every-other-day with fresh growth media and fresh drug dilutions for a total of 8 days as described above. • e) On day 9, cell viability of HepG2 cells was determined by adding 20 μl of MTS CellTiter 96 Aqueous One Solution.

[7] = test system: wild-type HBV (intracellular nucleocapsids); test: Anti-HBV activity in HBV nucleocapsids (RI) via endogenous polymerase assay (EPA); assay type: cell-based; conditions: Hepatitis B virus; wild-type HBV producer cell line, intracellular nucleocapsids, EPA; read-out: RI EC50
Experimental: Compounds were tested in an anti-HBV assay. Determination of anti-HBV activity in HBV virions and nucleocapsids via endoenous polymerase assays (EPA)
• 1. 12-well collagen-I coated plates were seeded with producer cells expressing wild-type HBV at a density of 0.5-1×10^6 cells per well in 2 ml growth/selection media. • 2. Drug stock solutions were made up freshly in 100% DMSO as 200× stocks. Five additional 4-fold dilutions were prepared from these 200× stock in 100% DMSO. For each experiment, 4 aliquots of each drug dilution series were stored at −20° C. until used. • 3. Once cells reached confluency (1 day after cells were seeded), drug treatment was initiated by adding 10 μl of drug dilution into 2 ml of fresh growth/selection media. […] The no-drug control wells received only 10 μl of DMSO in fresh media. • 4. Cells were treated every-other-day with 2 ml of fresh drug/medium for a total of 8 days. Cell lysates were then collected on day 10 and subjected to EPA analysis as described below. Preparation of Nucleocapsid-Containing Lysates for Epa Analysis • 1. Cells were grown for 3 to 4 days in 12-well collagen-I coated plates until confluent. • 2. Media was carefully aspirated and the cell monolayers were rinsed once with 1 ml of PBS. • 3. One ml of lysis buffer (50 mM Tris-HCl pH 7.5/150 mM NaCl/5 mM MgCl2/0.2% NP-40) was added to each well. Plates were stored on ice for 30 min to 4 h. • 4. Lysed cells were transferred to 1.5 ml-microfuge tubes. • 5. Lysates were clarified by spinning at 14,000 rpm for 5 min at room temperature. • 6. Clarified lysates were transferred to fresh tubes and immediately frozen on dry-ice, then stored at −80° C. until endogenous polymerase assays were performed as described below. Preparation of Secreted Virions from Supernatant for Epa Analysis • 1. Cells were grown for 3 to 4 days in 12-well collagen-I coated plates until confluent. • 2. Media was carefully aspirated and transferred to 1.5 ml-microfuge tubes. • 3. Supernatants were clarified by spinning at 14,000 rpm for 5 min at room temperature. • 4. Clarified supernatants were transferred to fresh tubes and immediately frozen on dry-ice, then stored at −80° C. until endogenous polymerase assays were performed essentially as described below. Endogenous Polymerase Assay (EPA) of Cell Lysates and Supernatants • 1. EPAs were performed essentially as described by Seifer et al (1998). Intracellular HBV nucleocapsids were immunoprecipitated from the cytoplasmic lysates overnight at 4° C. with a polyclonal rabbit anti-HBcAg antibody and immobilized on protein A sepharose CL-4B beads. Secreted virions were immunoprecipitated from clarified cell supernatants overnight at 4° C. with a monoclonal mouse anti-LS antibody (MA18/7) in the absence of detergent. • 2. Following 3 washes of the immobilized capsids or virions with 1 ml of EPA wash buffer (75 mM NH4Cl, 50 mM Tris-HCl pH 7.4, 1 mM EDTA), endogenous polymerase reactions were initiated by adding 50 μl of detergent-containing EPA cocktail (50 mM Tris-HCl pH7.4, 75 mM NH4Cl, 1 mM EDTA, 20 mM MgCl2, 0.1 mM β-ME, 0.5% NP-40, 100 μM cold dGTP, TTP, dCTP, and 50 nM ^33P-dATP) and incubated overnight at 37° C. The detergent is required to strip the outer envelope from immunoprecipitated virions as well as to enhance permeability of the nucleocapsids. • 3. Following digestion with 1 mg/ml of proteinase K for 1 h at 37° C., endogenously ^33P-labeled HBV DNA was liberated via phenol/chloroform extraction. • 4. The nucleic acids were precipitated with 1 volume of 5M NH4-acetate and 2.5 volumes of 100% EtOH, and then separated on a 1% native agarose gel in Tris-borate-EDTA buffer. • 5. Gels were blotted onto positively charged nylon membrane overnight at room temperature via capillary transfer in 0.4 N NaOH. • 6. Dried membranes were exposed to a Phosphorlmager screen (GE Healthcare) overnight at room temperature, then scanned (Storm 860, GE Healthcare) and quantitated with ImageQuant software (GE Healthcare). • 7. […]

HBV wt (HepG2) = test: Anti-HBV activity in HBV-infected HepG2 cells; assay type: cell-based; conditions: N=3
Experimental: The compound of Example 1 (NM 204) (Hydroxy-tBuSATE N-benzylphosphoramidate derivative of L-ddA) (A550) was contacted with HBV-infected HepG2 cells. EC50 values were measured according to standard techniques.

HepG2 cells = test: In vitro cytotoxicity assay in HepG2 cells (MTS); assay type: cell-based; conditions: 9 days, collagen plates
Experimental: as §3

Structure (SMILES) | EC50 [1] [µM] | CC50 [2] [µM] | SI [5] | EC50 ([5]; Hepatitis B virus) [µM] | CC50 at 9 days [6] [µM] | EC50 [7] [µM] | also measured
CC(C)(CO)C(=O)SCCOP(=O)(NCc1ccccc1)OC[C@H]1O[C@@H](n2ccc(N)nc2=O)[C@](C)(O)[C@@H]1O (mixture of isomers) [Example B102, Hydroxy-tBuSATE N-benzylphosphoramidate Derivative of 2′-C-methylcytidine] | 1 to 10 | > 75 | – | – | – | – | first-pass hepatic extraction [3]: > 95%; systemic exposure [3]: < 1%; first-pass hepatic extraction [4]: > 95%; systemic exposure [4]: < 1%; Mean viral load reduction (HCV genotype 1; HCV-infected chimpanzees, 10 mg/kg/day oral once daily): 1.5 log 10; lab abnormalities or evidence of toxicities (HCV genotype 1; chimpanzees, 10 mg/kg/day oral): No lab abnormalities or evidence of toxicities were observed
CC(C)(CO)C(=O)SCCOP(=O)(COCCn1cnc2c(N)ncnc21)NCc1ccccc1 (centres unmarked) [Example B261, Hydroxy-tBuSATE N-benzylphosphonamidate Derivative of PMEA] | – | – | 1,225 | 0.016 ± 0.004 | 19.6 | < 1 | –
CC(C)(CO)C(=O)SCCOP(=O)(NCc1ccccc1)OC[C@H]1O[C@@H](n2ccc(N)nc2=O)[C@]2(C)OC(=O)O[C@H]12 (some centres unmarked) [Example B302, Hydroxy-tBuSATE N-benzylphosphoramidate 2′,3′-cyclic carbonate Derivative of 2′-C-methylcytidine] | 1 to 10 | > 75 | – | – | – | – | melting point: 100 to 102 °C
Cc1cn([C@@H]2C[C@@H](O)[C@H](CO)O2)c(=O)[nH]c1=O [LdT] | – | – | >273 | – | – | – | EC50 (HBV wt (HepG2)): 0.26 ± 0.048 µM; EC50 [5]: 0.366 ± 0.056 µM; CC50 (HepG2 cells): > 100 µM
Nc1ncnc2c1ncn2CCOCP(=O)(O)O [PMEA] | – | – | >310 | 0.328 ± 0.082 | > 100 | < 1 | –
